Test results published in publication PMC6658769, “First-Time-in-Human Study and Prediction of Early Bactericidal Activity for GSK3036656, a Potent Leucyl-tRNA Synthetase Inhibitor for Tuberculosis Treatment” (Antimicrobial Agents and Chemotherapy, 2019).
Where two headings read alike, the source gives them in different places.

What was measured:
[1] = human, in vivo
M. tuberculosis = conditions: cited from earlier work

NC[C@@H](O)c1c(Cl)ccc(OCCO)c1O [GSK3635633]
% dose in pooled urine [1]: 6 % dose

C[C@]1(COc2ccc(N3CCC(Oc4ccc(OC(F)(F)F)cc4)CC3)cc2)Cn2cc([N+](=O)[O-])nc2O1 [delamanid]
reported average EBA0–14 (M. tuberculosis; 300 mg): 0.065

COc1nc2ccc(Br)cc2cc1[C@@H](c1ccccc1)[C@@](O)(CCN(C)C)c1cccc2ccccc12 [bedaquiline]
reported average EBA0–14 (M. tuberculosis; loading doses of 700 mg on day 1 and 500 mg on day 2 and then 400 mg): 0.061
